Reference: the supplement of paper PMC10307832

Tests used:
Assay in all cases: relative viability (nuclei count vs DMSO), 5 days (fraction); higher = more cells survive
QS11 + Tozasertib = compound: C1CC2=C(C1)C=C(C=C2)OC3=NC(=C4C(=N3)N(C=N4)CC5=CC=C(C=C5)C6=CC=CC=C6)N[C@@H](CC7=CC=CC=C7)CO [QS11] + Cc1cc(Nc2cc(N3CCN(C)CC3)nc(Sc3ccc(NC(=O)C4CC4)cc3)n2)n[nH]1 [Tozasertib] (partner 0.1 µM)
Procedure, shortened: (§1)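 A single step with final 0.05% Triton X-100, 1% formaldehyde and 1 ug/ml Hoechst fixed the cells and stained nuclei 5 days after treatment. Lung cancer cell lines in 1536-well plates had been treated by pin tool the day after seeding with one drug alone or a fixed anchor-drug dose plus five library-drug doses (not always all listed) in √10 steps, and nuclei were counted on 4× images. Relative viability is the ratio of nuclei in treated wells to nuclei in vehicle wells, taken as the median of duplicate plates.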

[1] = compound: C[As](C)SC[C@H](NC(=O)CC[C@H](N)C(=O)O)C(=O)NCC(=O)O [Darinaparsin] + CS(=O)(=O)N1CCN(Cc2cc3nc(-c4cccc5[nH]ncc45)nc(N4CCOCC4)c3s2)CC1 [Pictilisib] (partner 1 µM)
Procedure, shortened: as §1

Darinaparsin + Olaparib = compound: C[As](C)SC[C@H](NC(=O)CC[C@H](N)C(=O)O)C(=O)NCC(=O)O [Darinaparsin] + O=C(c1cc(Cc2n[nH]c(=O)c3ccccc23)ccc1F)N1CCN(C(=O)C2CC2)CC1 [Olaparib] (partner 8 µM)
Procedure, shortened: as §1

[2] = compound: C[As](C)SC[C@H](NC(=O)CC[C@H](N)C(=O)O)C(=O)NCC(=O)O [Darinaparsin] + CC(C)C[C@H](NC(=O)[C@H](Cc1ccccc1)NC(=O)c1cnccn1)B(O)O [Bortezomib] (partner 0.002 µM)
Procedure, shortened: as §1

Cell Line | relative viability (QS11 + Tozasertib; first compound 0.08 µM) | relative viability (QS11 + Tozasertib; first compound 0.253 µM) | relative viability (QS11 + Tozasertib; first compound 0.8 µM) | relative viability (QS11 + Tozasertib; first compound 2.53 µM) | relative viability (QS11 + Tozasertib; first compound 8 µM) | relative viability ([1]; first compound 0.08 µM) | relative viability ([1]; first compound 0.8 µM) | relative viability ([1]; first compound 2.53 µM) | relative viability ([1]; first compound 8 µM) | relative viability (Darinaparsin + Olaparib; first compound 0.08 µM) | relative viability (Darinaparsin + Olaparib; first compound 0.8 µM) | relative viability (Darinaparsin + Olaparib; first compound 2.53 µM) | relative viability (Darinaparsin + Olaparib; first compound 8 µM) | relative viability ([2]; first compound 0.08 µM) | relative viability ([2]; first compound 0.8 µM) | relative viability ([2]; first compound 2.53 µM) | relative viability ([2]; first compound 8 µM)
BEN | 0.441 | 0.529 | 0.504 | 0.485 | 0.486 | 0.709 | 0.636 | 0.498 | 0.659 | 1.21 | 0.993 | 1.06 | 1.08 | 0.889 | 0.846 | 0.654 | 1
NCI-H520 | 0.465 | 0.454 | 0.503 | 0.418 | 0.407 | 0.287 | 0.339 | 0.241 | 0.277 | 0.378 | 0.321 | 0.354 | 0.313 | 0.765 | 0.491 | 0.531 | 0.474
ChaGo-K-1 | 0.232 | 0.256 | 0.238 | 0.216 | 0.23 | 0.947 | 0.693 | 0.732 | 0.662 | 0.469 | 0.417 | 0.385 | 0.401 | 1.18 | 1.07 | 1.01 | 0.767
NCI-H2405 | 0.752 | 0.699 | 0.725 | 0.758 | 0.899 | 0.5 | 0.443 | 0.422 | 0.537 | 0.992 | 0.865 | 0.841 | 0.914 | 1.08 | 0.936 | 0.899 | 1.09
NCI-H2087 | 0.245 | 0.225 |  | 0.243 | 0.265 | 1.06 | 0.881 | 0.652 | 0.997 | 0.797 | 0.527 | 0.572 | 0.701 | 1.02 | 0.944 | 0.948 | 1.13
NCI-H460 | 0.3 | 0.446 |  | 0.0921 | 0.143 | 0.479 | 0.415 | 0.373 | 0.406 | 0.614 | 0.413 | 0.435 | 0.324 |  | 1.11 | 0.703 | 1.84
LCLC-103H | 0.389 | 0.496 | 0.358 | 0.477 | 0.43 | 0.52 | 0.566 | 0.593 | 0.604 | 0.882 | 0.698 | 0.742 | 0.861 | 1.05 | 0.978 | 1.14 | 1.35
NCI-H1650 | 0.244 | 0.368 | 0.436 | 0.358 | 0.402 | 0.666 | 0.503 | 0.623 | 0.59 | 0.956 | 0.718 | 0.95 | 0.801 | 0.216 | 0.193 | 0.193 | 0.195
NCI-H441 | 0.642 | 0.572 | 0.582 | 0.481 | 0.581 | 0.566 | 0.498 | 0.424 | 0.548 | 0.647 | 0.538 | 0.734 | 0.502 | 0.611 | 0.513 | 0.636 | 0.447
